Data taken from the supplement of paper PMC10307832.

How the values were obtained:
Experiment in all cases: relative viability (nuclei count vs DMSO), 5 days (fraction); higher = more cells survive
XMD13-2 + Lapatinib = compound: C1CC1C(=O)NC2=NNC3=C2C=CC(=C3)C4=CC(=CC=C4)C(=O)NC5CC5 [XMD13-2] + CS(=O)(=O)CCNCc1ccc(-c2ccc3ncnc(Nc4ccc(OCc5cccc(F)c5)c(Cl)c4)c3c2)o1 [Lapatinib] (partner 2 µM)
Method in brief: (§1)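 Each reported value is a median over duplicate plates. It expresses relative viability: treated-well nuclei count divided by vehicle-well nuclei count. Lung cancer cell lines in 1536-well plates were dosed by pin tool a day after seeding, alone with one drug or with a fixed anchor-drug dose plus five library-drug doses (not always all listed) in √10 steps, and nuclei were counted after 5 days.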

Dasatinib + Luminespib = compound: Cc1nc(Nc2ncc(C(=O)Nc3c(C)cccc3Cl)s2)cc(N2CCN(CCO)CC2)n1 [Dasatinib] + CCNC(=O)c1noc(-c2cc(C(C)C)c(O)cc2O)c1-c1ccc(CN2CCOCC2)cc1 [Luminespib] (partner 0.01 µM)
Method in brief: as §1

Dasatinib + Tozasertib = compound: Cc1nc(Nc2ncc(C(=O)Nc3c(C)cccc3Cl)s2)cc(N2CCN(CCO)CC2)n1 [Dasatinib] + Cc1cc(Nc2cc(N3CCN(C)CC3)nc(Sc3ccc(NC(=O)C4CC4)cc3)n2)n[nH]1 [Tozasertib] (partner 0.1 µM)
Method in brief: as §1

XMD13-2 + Crizotinib = compound: C1CC1C(=O)NC2=NNC3=C2C=CC(=C3)C4=CC(=CC=C4)C(=O)NC5CC5 [XMD13-2] + C[C@@H](Oc1cc(-c2cnn(C3CCNCC3)c2)cnc1N)c1c(Cl)ccc(F)c1Cl [Crizotinib] (partner 1 µM)
Method in brief: as §1

Cell Line	relative viability (XMD13-2 + Lapatinib; first compound 0.05 µM)	relative viability (XMD13-2 + Lapatinib; first compound 0.1581 µM)	relative viability (XMD13-2 + Lapatinib; first compound 0.5 µM)	relative viability (XMD13-2 + Lapatinib; first compound 1.581 µM)	relative viability (XMD13-2 + Lapatinib; first compound 5 µM)	relative viability (Dasatinib + Luminespib; first compound 0.005 µM)	relative viability (Dasatinib + Luminespib; first compound 0.05 µM)	relative viability (Dasatinib + Luminespib; first compound 0.1581 µM)	relative viability (Dasatinib + Luminespib; first compound 0.5 µM)	relative viability (Dasatinib + Tozasertib; first compound 0.005 µM)	relative viability (Dasatinib + Tozasertib; first compound 0.05 µM)	relative viability (Dasatinib + Tozasertib; first compound 0.1581 µM)	relative viability (Dasatinib + Tozasertib; first compound 0.5 µM)	relative viability (XMD13-2 + Crizotinib; first compound 0.05 µM)	relative viability (XMD13-2 + Crizotinib; first compound 0.1581 µM)	relative viability (XMD13-2 + Crizotinib; first compound 0.5 µM)	relative viability (XMD13-2 + Crizotinib; first compound 1.581 µM)	relative viability (XMD13-2 + Crizotinib; first compound 5 µM)	relative viability (Dasatinib + Luminespib; first compound 0.01581 µM)	relative viability (Dasatinib + Tozasertib; first compound 0.01581 µM)
LU99A	1.21	0.975	1.02	0.858	0.42	0.229	0.247	0.143	0.166	0.233	0.243	0.209	0.23	0.581	0.489	0.558	0.429	0.393		
LXF-289	0.923	0.901	0.905	0.897	0.834	0.745	0.648	0.334	0.138	0.193	0.0932	0.0636	0.0438	0.863	0.831	0.473	0.789	0.811	0.564	0.0886
NCI-H23	1.33	0.964	0.996	1.09	1.27	0.233	0.217	0.19	0.187	0.318	0.347	0.302	0.318	0.759	0.518	0.506	0.411	0.423	0.195	0.309
NCI-H322M	0.641	0.528	0.593	0.605	0.724	0.779	0.38	0.288	0.232	0.465	0.289	0.232	0.176	0.913	0.937	1.09	0.814	1.01	0.491	0.356
NCI-H358	0.566	0.463	0.471	0.404	0.322	0.215	0.253	0.262	0.136	0.0888	0.101	0.084	0.0689	0.77	0.546	0.736	0.423	0.324	0.169	0.0863
NCI-H460	1.23	0.925	1.27	0.908	0.0203	0.0311	0.0288	0.02	0.0207	0.299	0.302	0.338	0.177	1.25	0.951	0.99	0.949	0.873	0.031	0.425
NCI-H520	1.06	0.923	0.924	0.717	0.354	0.184	0.221	0.194	0.197	0.356	0.294	0.239	0.179	0.962	0.681	0.682	0.672	0.403	0.209	0.284
NCI-H596	1.1	0.942	1.22	0.989	1.17	0.809	0.776	0.552	0.478	0.766	0.87	0.507	0.393	1.05	0.916	0.98	0.884	1.05	0.691	0.671
NCI-H647	1.14	1.31	1.22	1.02	0.369	0.141	0.137	0.117	0.0952	0.265	0.128	0.0973	0.0474	1.25	0.903	1.12	1.03	0.548	0.0794	0.288
NCI-H650	0.993	1.06	0.94	0.752	0.829	0.771	0.852	0.401	0.213	0.705	0.755	0.619	0.42	0.838	0.836	0.803	0.638	0.74	0.777	0.665
NCI-H661	0.423	0.555	0.578	0.519	0.386	0.99	1	0.844	0.657	0.348	0.324	0.323	0.295	0.985	1.02	0.864	0.887	0.875	1.02	0.34
NCI-H727	0.836	0.844	1.06	1.01	0.949	0.255	0.334	0.237	0.244	0.607	0.606	0.379	0.185	0.938	0.697	1	0.771	0.687	0.425	0.523
NCI-H838	1.17	1.14	1.13	1.03	0.959	0.265	0.196	0.189	0.158	0.279	0.245	0.179	0.2	0.917	0.891	0.814	0.883	0.848	0.24	0.292
NCI-H1355	1.13	0.942	1.05	0.997	1.06	0.766	0.569	0.458	0.435	0.585	0.459	0.401	0.347	1.07	1.12	1.09	1.01	0.941	0.561	0.421
NCI-H1437	0.911	0.849	0.858	0.793	0.683	1.11	1.16	1.08	0.665	0.431	0.394	0.32	0.314	0.874	1.02	0.902	0.886	1.07	1.12	0.38
NCI-H1650	0.865	0.674	0.809	0.677	0.227	0.228	0.236	0.177	0.187	0.356	0.342	0.233	0.153	1.31	0.861	1.02	0.989	1.16	0.199	0.302

Cell Line	relative viability (XMD13-2 + Lapatinib; first compound 0.05 µM)	relative viability (XMD13-2 + Lapatinib; first compound 0.1581 µM)	relative viability (XMD13-2 + Lapatinib; first compound 0.5 µM)	relative viability (XMD13-2 + Lapatinib; first compound 1.581 µM)	relative viability (XMD13-2 + Lapatinib; first compound 5 µM)	relative viability (Dasatinib + Luminespib; first compound 0.005 µM)	relative viability (Dasatinib + Luminespib; first compound 0.05 µM)	relative viability (Dasatinib + Luminespib; first compound 0.1581 µM)	relative viability (Dasatinib + Luminespib; first compound 0.5 µM)	relative viability (Dasatinib + Tozasertib; first compound 0.005 µM)	relative viability (Dasatinib + Tozasertib; first compound 0.05 µM)	relative viability (Dasatinib + Tozasertib; first compound 0.1581 µM)	relative viability (Dasatinib + Tozasertib; first compound 0.5 µM)	relative viability (XMD13-2 + Crizotinib; first compound 0.05 µM)	relative viability (XMD13-2 + Crizotinib; first compound 0.1581 µM)	relative viability (XMD13-2 + Crizotinib; first compound 0.5 µM)	relative viability (XMD13-2 + Crizotinib; first compound 1.581 µM)	relative viability (XMD13-2 + Crizotinib; first compound 5 µM)	relative viability (Dasatinib + Luminespib; first compound 0.01581 µM)	relative viability (Dasatinib + Tozasertib; first compound 0.01581 µM)
NCI-H1651	1.09	0.78	0.906	1.09	0.751	0.742	0.868	0.677	0.63	0.679	0.724	0.522	0.656	0.946	0.811	0.886	0.898	0.863	0.723	0.611
NCI-H1666	0.63	0.666	0.979	0.719	0.441	0.992	1.06	0.88	0.459	0.632	0.67	0.565	0.309	0.832	0.989	1.09	0.971	0.855	1.05	0.616
NCI-H1734	1.28	0.995	0.735	0.935	0.85	0.185	0.159	0.167	0.156	0.26	0.235	0.165	0.181	0.91	0.655	0.66	0.594	0.474	0.191	0.285
NCI-H1755	1.08	1.09	1.07	1	1.09	0.522	0.375	0.303	0.16	0.584	0.516	0.312	0.21	0.982	0.85	0.861	0.856	0.922	0.301	0.532
NCI-H1915	1.07	1.01	1	1	0.94	0.818	0.673	0.208	0.149	0.435	0.301	0.173	0.157	0.966	0.931	0.902	0.967	0.941	0.601	0.372
NCI-H1944	1.01	0.726	0.95	1.06	0.746	0.73	0.609	0.448	0.129	0.259	0.201	0.111	0.104	1.42	1.11	1.14	1.35	1.09	0.625	0.223
NCI-H1975	0.968	0.922	0.991	1.01	1.01	0.177	0.155	0.178	0.139	0.692	0.648	0.377	0.245	1.21	1.02	0.91	0.954	1.14	0.212	0.677
NCI-H1993	0.904	0.87	0.931	0.765	0.706	0.883	0.971	0.432	0.543	0.524	0.563	0.448	0.377	0.913	0.844	0.935	0.768	0.69	0.598	0.435
NCI-H2009	0.914	1.03	1.16	0.894	0.519	1.05	1.1	0.605	0.168	0.738	0.679	0.4	0.179	1.09	1.03	1.05	1	1.12	1.02	0.65
NCI-H2023	0.932	0.739	0.835	0.724	0.3	0.646	0.599	0.518	0.507	0.304	0.293	0.245	0.219	0.738	0.592	0.62	0.556	0.809	0.669	0.316
NCI-H2085	0.821	0.776	0.87	0.809	0.699	0.411	0.459	0.275	0.166	0.737	0.564	0.229	0.214	1.09	0.901	0.877	0.736	0.826	0.307	0.641
NCI-H2087	1.06	1.48	1.01	1.23	0.737	0.211	0.152	0.148	0.149	0.289	0.246	0.185	0.113	0.821	0.776	0.913	0.83	0.897	0.133	0.21
NCI-H2126	0.728	0.767	0.792	0.706	0.765	0.837	0.835	0.55	0.375	0.832	0.773	0.654	0.348	1.08	0.979	1.04	0.998	1.06	0.792	0.732
NCI-H2170	0.307	0.272	0.278	0.284	0.266	0.497	0.597	0.315	0.273	0.698	0.722	0.564	0.247	1.27	1.17	1.34	1.19	1.16	0.482	0.622
NCI-H2228	1.42	1.19	1.05	1.23	0.426	0.158	0.145	0.0907	0.101	0.231	0.216	0.185	0.184	0.714	0.442	0.496	0.445	0.513	0.095	0.232
NCI-H2347	0.987	0.93	0.912	1.04	0.973	0.404	0.266	0.23	0.276	0.56	0.363	0.238	0.263	0.739	0.676	0.772	0.906	0.73	0.359	0.454
